# Assay results as given in patent publication US9107926B2, “Mutant selectivity and combinations of a phosphoinositide 3-kinase inhibitor compound and chemotherapeutic agents for the treatment of cancer” (Genentech, Inc., priority 2012, dated 2015).
# What was measured:
# SW48 parental cells = test: four day CellTiter-Glo viability assay, SW48 isogenic cell line set; conditions: Homo sapiens, SW48, 96 h, read-out: Viability EC50
# Description: (§1) SW48 parental cells and knock-in mutant subclones harboring common PIK3CA hotspot mutations E545K or H1047R were obtained from Horizon Discovery.
# MDA-MB-453 = test: CellTiter-Glo cell proliferation assay; format: cell-based; conditions: Homo sapiens, Breast, Kinase-HET.1047H > R, HET.350D > N
# [1] = system: SW48 PIK3CA H1047R knock-in mutant subclone; test: four day CellTiter-Glo viability assay, SW48 isogenic cell line set; conditions: Homo sapiens, SW48, 96 h, read-out: Viability EC50
# Description: as §1
# LS-180 = test: CellTiter-Glo cell proliferation assay; format: cell-based; conditions: Homo sapiens, LS180, Colon, KRAS/HET.1047H > R
# SW1573 = test: CellTiter-Glo cell proliferation assay; format: cell-based; conditions: Homo sapiens, Lung(NSCLC), K-RAS
# [2] = system: SW48 isogenic cells; parental and PIK3CA knock-in mutants E545K and H1047R; test: western blot of cell lysates after 18 hours of GDC-0032 exposure; format: cell-based; conditions: lysates collected 18 hours post dosing
# H2122 = test: CellTiter-Glo cell proliferation assay; format: cell-based; conditions: Homo sapiens, NCI-H2122, Lung(NSCLC), K-RAS
# EVSA-T = test: CellTiter-Glo cell proliferation assay; format: cell-based; conditions: Homo sapiens, Breast, PTEN
# HCT116 = test: CellTiter-Glo cell proliferation assay; format: cell-based; conditions: Homo sapiens, HCT-116, Colon, KRAS/HET.1047H > R
# H1793 = test: CellTiter-Glo cell proliferation assay; format: cell-based; conditions: Homo sapiens, NCI-H1793, Lung(NSCLC), WT
# HDQ-P1 = test: CellTiter-Glo cell proliferation assay; format: cell-based; conditions: Homo sapiens, Breast, WT
# Protocol: (§2) Cell Culture Medium: RPMI or DMEM high glucose, 10% Fetal Bovine Serum, 2 mM L-Glutamine, P/S. Incubate O/N (overnight) at 37° C., 5% CO2.
# (§3) Drug Addition to Cells, Cell Plate (1:10 dilution): Add 6 μl of media+compound directly to cells (54 μl of media on the cells already). Incubate 3 days at 37° C., 5% CO2 in an incubator that will not be opened often.
# (§4) Day 5—Develop Plates, Thaw Cell Titer Glo Buffer at room temperature: Remove Cell Plates from 37° C. and equilibrate to room temperature for about 30 minutes. Add Cell Titer-Glo® Buffer to Cell Titer-Glo® Substrate (bottle to bottle). Add 30 μl Cell Titer-Glo® Reagent (Promega cat.#G7572) to each well of cells. Place on plate shaker for about 30 minutes. Read luminescence on Analyst HT Plate Reader (half second per well).
# G96 = test: CellTiter-Glo cell proliferation assay; format: cell-based; conditions: Glioma, WT
# H460 = test: CellTiter-Glo cell proliferation assay; format: cell-based; conditions: Homo sapiens, NCI-H460, Lung(NSCLC), KRAS/HEt.545E > K
# HOP18 = test: CellTiter-Glo cell proliferation assay; format: cell-based; conditions: Homo sapiens, HOP-18, Lung(NSCLC), K-RAS
# HT-29 = test: CellTiter-Glo cell proliferation assay; format: cell-based; conditions: Homo sapiens, Colon, K-RAS
# A2058 = test: CellTiter-Glo cell proliferation assay; format: cell-based; conditions: Homo sapiens, Melanoma, PTEN/B-Raf
# EBC-1 = test: CellTiter-Glo cell proliferation assay; format: cell-based; conditions: Homo sapiens, Lung(NSCLC), K-RAS
# A375 = test: CellTiter-Glo cell proliferation assay; format: cell-based; conditions: Homo sapiens, A-375, Melanoma, B-Raf
# SW948 = test: CellTiter-Glo cell proliferation assay; format: cell-based; conditions: Homo sapiens, Colon, KRAS/HOM.542E > K
# BT474 = test: CellTiter-Glo cell proliferation assay; format: cell-based; conditions: Homo sapiens, BT-474, Breast, HER2 Amplified
# H1568 = test: CellTiter-Glo cell proliferation assay; format: cell-based; conditions: NCI-H1568, Lung(NSCLC), WT
# BT549 = test: CellTiter-Glo cell proliferation assay; format: cell-based; conditions: Homo sapiens, BT-549, Breast, PTEN
# T47D = test: CellTiter-Glo cell proliferation assay; format: cell-based; conditions: Homo sapiens, Breast, Kinase-HET.1047H > R, HET.350D > N
# Protocol: as §2, §3, §4
# MDA-MB-468 = test: CellTiter-Glo cell proliferation assay; format: cell-based; conditions: Homo sapiens, Breast, PTEN
# H520 = test: CellTiter-Glo cell proliferation assay; format: cell-based; conditions: Homo sapiens, NCI-H520, Lung(NSCLC), PTEN
# U87MG = test: CellTiter-Glo cell proliferation assay; format: cell-based; conditions: Homo sapiens, U-87 MG, Glioma, PTEN
# MDST8 = test: CellTiter-Glo cell proliferation assay; format: cell-based; conditions: Colon, PTEN/B-Raf
# INK-134 = test: CellTiter-Glo cell proliferation assay; format: cell-based; conditions: Glioma, Helical-HET.545E > D, HET.1043M > I
# AU565 = test: CellTiter-Glo cell proliferation assay; format: cell-based; conditions: Homo sapiens, Breast, HER2 Amplified
# CAL51 = test: CellTiter-Glo cell proliferation assay; format: cell-based; conditions: Homo sapiens, CAL-51, Breast, PTEN/HET.542E > K
# Protocol: as §2, §3, §4
# H1299 = test: CellTiter-Glo cell proliferation assay; format: cell-based; conditions: Homo sapiens, NCI-H1299, Lung(NSCLC), N-RAS
# CAL120 = test: CellTiter-Glo cell proliferation assay; format: cell-based; conditions: Homo sapiens, CAL-120, Breast, WT
# Protocol: as §2, §3, §4
# Detroit562 = test: CellTiter-Glo cell proliferation assay; format: cell-based; conditions: Homo sapiens, Detroit 562, Head/Neck, Kinase-H1047R
# PI3K alpha E545K mutant = PI3K alpha E545K mutant (Homo sapiens, UniProt P42336, E545K); conditions: relative to PI3K alpha
# Protocol: After an incubation time of 30 minutes at room temperature, the reactions were stopped by the addition of GRP-1 and PIP3-TAMRA probe (Echelon-Inc., Salt Lake City, Utah.) 100 nM and 5 nM final concentrations respectively. Read with standard cut-off filters for the rhodamine fluorophore (λex=530 nm; λem=590 nm) in 384-well black low volume Proxiplates® (PerkinElmer, Wellesley, Mass.) Fluorescence polarization values were plotted as a function of the protein concentration. EC50 values were obtained by fitting the data to a four-parameter equation using KaleidaGraph® software (Synergy software, Reading, Pa.). This experiment also establishes the appropriate protein concentration to use in subsequent competition experiments with inhibitors.
# After an incubation time of 30 minutes at room temperature, the reactions were stopped by the addition of GRP-1 and PIP3-TAMRA probe (Echelon-Inc., Salt Lake City, Utah.) 100 nM and 5 nM final concentrations respectively.
# The compound was serially diluted in 100% DMSO. The kinase reaction was incubated for 1 h at room temperature, and the reaction was terminated by the addition of PBS. IC50 values were subsequently determined using sigmoidal dose-response curve fit (variable slope).
# H1650 = test: CellTiter-Glo cell proliferation assay; format: cell-based; conditions: Homo sapiens, NCI-H1650, Lung(NSCLC), PTEN
# FUOV1 = test: CellTiter-Glo cell proliferation assay; format: cell-based; conditions: Ovarian, WT
# Protocol: as §2, §3, §4
# H650 = test: CellTiter-Glo cell proliferation assay; format: cell-based; conditions: Homo sapiens, NCI-H650, Lung(NSCLC), K-RAS
# H661 = test: CellTiter-Glo cell proliferation assay; format: cell-based; conditions: Homo sapiens, NCI-H661, Lung(NSCLC), WT
# H292 = test: CellTiter-Glo cell proliferation assay; format: cell-based; conditions: Homo sapiens, NCI-H292, Lung(NSCLC), K-RAS
# SF539 = test: CellTiter-Glo cell proliferation assay; format: cell-based; conditions: Homo sapiens, SF-539, Glioma, PTEN
# Chain of PI3K alpha E545K mutant (P42336 whole entry E545K): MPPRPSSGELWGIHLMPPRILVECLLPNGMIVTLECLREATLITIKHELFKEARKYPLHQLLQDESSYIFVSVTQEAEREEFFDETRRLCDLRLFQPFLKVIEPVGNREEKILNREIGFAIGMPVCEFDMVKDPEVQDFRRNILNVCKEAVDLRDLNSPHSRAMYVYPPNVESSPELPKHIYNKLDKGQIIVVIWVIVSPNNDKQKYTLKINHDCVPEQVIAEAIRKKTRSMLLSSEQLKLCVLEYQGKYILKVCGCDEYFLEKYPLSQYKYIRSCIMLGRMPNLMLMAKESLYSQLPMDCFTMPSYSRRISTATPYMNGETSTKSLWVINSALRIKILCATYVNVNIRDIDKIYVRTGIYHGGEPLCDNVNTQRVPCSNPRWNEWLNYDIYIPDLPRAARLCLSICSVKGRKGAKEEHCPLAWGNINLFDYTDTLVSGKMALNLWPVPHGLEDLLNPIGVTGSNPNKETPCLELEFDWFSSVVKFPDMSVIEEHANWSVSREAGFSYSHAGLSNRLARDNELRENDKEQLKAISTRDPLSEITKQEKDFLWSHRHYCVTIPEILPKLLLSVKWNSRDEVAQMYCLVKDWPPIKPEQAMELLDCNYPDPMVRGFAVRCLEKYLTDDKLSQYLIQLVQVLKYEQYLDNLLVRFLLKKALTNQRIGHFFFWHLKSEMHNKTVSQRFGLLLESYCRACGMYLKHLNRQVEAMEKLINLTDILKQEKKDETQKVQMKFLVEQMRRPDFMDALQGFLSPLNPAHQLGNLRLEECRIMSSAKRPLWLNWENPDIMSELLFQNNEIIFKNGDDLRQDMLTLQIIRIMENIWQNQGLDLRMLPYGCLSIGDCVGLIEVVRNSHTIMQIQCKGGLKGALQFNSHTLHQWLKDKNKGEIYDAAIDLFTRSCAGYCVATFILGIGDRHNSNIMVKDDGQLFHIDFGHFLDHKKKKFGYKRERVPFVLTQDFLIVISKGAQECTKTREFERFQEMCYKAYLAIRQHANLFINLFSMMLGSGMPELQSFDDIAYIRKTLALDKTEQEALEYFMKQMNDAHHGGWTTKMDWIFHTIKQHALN
# Chain of PI3K alpha E545K mutant (P27986 whole entry partner): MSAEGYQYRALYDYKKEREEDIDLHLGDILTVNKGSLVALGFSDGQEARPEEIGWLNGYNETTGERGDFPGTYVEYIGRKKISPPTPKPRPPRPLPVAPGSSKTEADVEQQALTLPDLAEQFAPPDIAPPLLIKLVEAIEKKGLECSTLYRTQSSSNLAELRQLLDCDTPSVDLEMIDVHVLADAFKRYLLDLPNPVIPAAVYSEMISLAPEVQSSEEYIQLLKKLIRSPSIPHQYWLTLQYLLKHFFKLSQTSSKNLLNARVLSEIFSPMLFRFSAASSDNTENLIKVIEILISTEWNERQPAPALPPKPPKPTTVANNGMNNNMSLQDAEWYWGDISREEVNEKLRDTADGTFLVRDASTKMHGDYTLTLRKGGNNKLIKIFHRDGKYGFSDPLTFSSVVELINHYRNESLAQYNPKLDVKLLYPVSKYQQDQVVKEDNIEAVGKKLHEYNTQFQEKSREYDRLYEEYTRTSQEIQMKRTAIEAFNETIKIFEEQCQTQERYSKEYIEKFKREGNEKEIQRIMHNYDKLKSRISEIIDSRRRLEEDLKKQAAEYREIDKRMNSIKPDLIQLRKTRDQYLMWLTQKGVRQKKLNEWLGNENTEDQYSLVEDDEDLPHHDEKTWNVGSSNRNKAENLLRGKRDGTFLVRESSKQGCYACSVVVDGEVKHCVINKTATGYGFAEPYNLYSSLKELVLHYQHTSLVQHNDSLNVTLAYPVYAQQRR
smiles,measurement,setting,value
"Cc1nc(-c2cn3c(n2)-c2ccc(-c4cnn(C(C)(C)C(N)=O)c4)cc2OCC3)n(C(C)C)n1 [GDC-0032, 2-(4-(2-(1-isopropyl-3-methyl-1H-1,2,4-triazol-5-yl)-5,6-dihydrobenzo[f]imidazo[1,2-d][1,4]oxazepin-9-yl)-1H-pyrazol-1-yl)-2-methylpropanamide]",EC50,SW48 parental cells,22 nM
same,EC50,MDA-MB-453,44 nM
same,EC50,[1],8 nM
same,EC50,LS-180,795 nM
same,EC50,SW1573,285 nM
same,apoptosis induction (autoradiograms of lysates),[2],induces apoptosis in cells harboring PI3K mutations at very low compound concentrations
same,EC50,H2122,366 nM
same,EC50,EVSA-T,1120 nM
same,EC50,HCT116,897 nM
same,EC50,H1793,2020 nM
same,EC50,HDQ-P1,258 nM
same,EC50,G96,201 nM
same,EC50,H460,603 nM
same,EC50,HOP18,77 nM
same,EC50,HT-29,75 nM
same,EC50,A2058,9.24 µM
same,EC50,EBC-1,1660 nM
same,EC50,A375,10 µM
same,EC50,SW948,62 nM
same,EC50,BT474,84 nM
same,EC50,H1568,10 µM
same,EC50,BT549,1200 nM
same,EC50,T47D,45 nM
same,EC50,MDA-MB-468,7.88 µM
same,EC50,H520,264 nM
same,EC50,U87MG,1020 nM
same,EC50,MDST8,4.01 µM
same,EC50,INK-134,976 nM
same,EC50,AU565,93 nM
same,EC50,CAL51,326 nM
same,EC50,H1299,1720 nM
same,EC50,CAL120,3.84 µM
same,EC50,Detroit562,58 nM
same,PI3K alpha E545K mutant,PI3K alpha E545K mutant,0.4x
same,EC50,H1650,1480 nM
same,EC50,FUOV1,62 nM
same,EC50,H650,10 µM
same,EC50,H661,497 nM
same,EC50,H292,274 nM
same,EC50,SF539,1880 nM
